# Experimental data: patent US4806680A, “3-halovinylglycine antibacterial agents” (Merck & Co., Inc., priority 1987, dated 1989)
# Structures can show the parent of a compound that is named as a salt.
# Assays:
# [1] = tested on: E. Coli alanine racemase; assay: Inhibition of E. coli alanine racemase; type: biochemical
# [2] = tested on: K. pneumoniae; assay: Agar dilution assay (M.I.C.); type: cell-based, Klebsiella pneumoniae; settings: vs K. pneumoniae
# Method: (§1) Representative 3-halovinylglycines and amino acid conjugates were tested for antibacterial activity by an agar dilution assay [being an modification of the antagonist-free-medium assay described in: Antimicrobial Agents and Chemotherapy, May 1979, pp 677-683 and pp 684-695]. Compounds assayed include (L) and (D)-3-chlorovinylglycine (HCL salts), (L) norvalyl-(L), (D), and (DL)-3 chlorovinylglycine (CF3 COOH salts), and (L) norvalyl-(L), (D), and (DL)-3 fluorovinylglycine (CF3 COOH) salts.
# [3] = tested on: Strep. faecalis; assay: Agar dilution assay (M.I.C.); type: cell-based, Streptococcus faecalis; settings: vs Strep. faecalis
# Method: as §1
# [4] = tested on: S. aureus; assay: Agar dilution assay (M.I.C.); type: cell-based, Staphylococcus aureus; settings: for antibacterial activity (in words): vs S. aureus; for MIC: Staphylococcus aureus, read-out: minimum inhibitory concentration (M.I.C.)
# Method: as §1
# [5] = tested on: E. coli; assay: Agar dilution assay (M.I.C.); type: cell-based, Escherichia coli; settings: vs E. coli
# Method: as §1
# [6] = tested on: eleven representative strains of pathogenic bacteria; assay: Agar dilution assay, panel of eleven strains; type: cell-based; settings: for number of test species against which activity is shown: M.I.C. equal to or less than 256 indicates activity, 11 test species
# Method: as §1
# The antibacterial activity of the representative structure I compounds versus eleven representative strains of pathogenic bacteria is shown in the following Table.
# [7] = tested on: E. coli DC2; assay: Agar dilution assay (M.I.C.); type: cell-based; settings: Escherichia coli, read-out: minimum inhibitory concentration (M.I.C.)
# Method: as §1
# [8] = tested on: E. coli TEM 2^+; assay: Agar dilution assay (M.I.C.); type: cell-based; settings: Escherichia coli, read-out: minimum inhibitory concentration (M.I.C.)
# Method: as §1
# [9] = tested on: Sal. typhimurium; assay: Agar dilution assay (M.I.C.); type: cell-based; settings: Salmonella enterica, read-out: minimum inhibitory concentration (M.I.C.)
# Method: as §1
# [10] = tested on: cystathionine synthetase; settings: synthesis of cystathionine from serine; cited from earlier work
compound,measurement,setting,value
"C=C(Cl)[C@@H](N)C(=O)O [(D)Cl vinylgly, (D)-3-Chlorovinylglycine hydrochloride]",inhibition of alanine racemase (in words),[1],potent irreversible inhibitor
same,antibacterial activity (in words),[2],exhibits antibacterial activity
same,antibacterial activity (in words),[3],exhibits antibacterial activity
same,antibacterial activity (in words),[4],exhibits antibacterial activity
same,antibacterial activity (in words),[5],exhibits antibacterial activity
"C=C(Cl)[C@H](NC(=O)[C@@H](N)CCC)C(=O)O [(L)-NVA--(L)-Cl--vinylgly, (L,L)-Norvalyl 3-chlorovinylglycine trifluoroacetate]",number of test species against which activity is shown,[6],8 of 11
same,MIC,[7],1000 µg/mL
same,MIC,[8],8000 µg/mL
same,MIC,[9],64000 µg/mL
"C=C(F)[C@H](NC(=O)[C@@H](N)CCC)C(=O)O [(L)-NVA--(L)-F--vinylgly, (L,L)-Norvalyl-3-fluorovinylglycine trifluoroacetate]",relative activity in the antibacterial agar dilution assay,"[6]; (L,L) versus (L,D) diastereomer",more active
same,number of test species against which activity is shown,[6],9 of 11
same,MIC,[7],2000 µg/mL
same,MIC,[8],16000 µg/mL
"C=C(Cl)C(N)C(=O)O (racemic) [racemic 3-chlorovinylglycine, 2-amino-3-chloro-3-butenoic acid]",inactivation of cystathionine synthetase (in words),[10],not being an inactivator
"C=C(F)C(NC(=O)[C@@H](N)CCC)C(=O)O (stereo partly drawn) [(L)-NVA--(DL)-F--vinylgly, (L,DL)-Norvalyl-3-fluorovinylglycine trifluoracetate]",MIC,[4],1000 µg/mL
same,MIC,[7],4000 µg/mL
"C=C(Cl)C(NC(=O)[C@@H](N)CCC)C(=O)O (mixture of isomers) [(L)-NVA--(DL)-Cl--vinylgly, L-norvalyl-D,L-3-chlorovinylglycine]",MIC,[4],≤ 250 µg/mL
same,MIC,[7],4000 µg/mL
"C=C(Cl)[C@@H](NC(=O)[C@@H](N)CCC)C(=O)O [(L)-NVA--(D)-Cl--vinylgly, L-norvalyl-D-3-chlorovinylglycine]",MIC,[7],32000 µg/mL
"C=C(Cl)[C@H](N)C(=O)O [(L)Cl vinylgly, L-3-chlorovinylglycine]",inhibition of alanine racemase (in words),[1],inhibits
same,antibacterial activity (in words),[2],exhibits antibacterial activity
same,antibacterial activity (in words),[3],exhibits antibacterial activity
same,antibacterial activity (in words),[4],exhibits antibacterial activity
